In patent US20240050526A1, “CATH2 DERIVATIVES FOR STIMULATING INNATE IMMUNE MEMORY” (priority 2020, published 2024):
Ends that are not written are not given here.

Tests used:
Assay type in all cases: cell-based, human
[1] = tested on: dTHP-1 cells; test: Innate immune training of dTHP-1 cells by cathelicidin peptides, cytokine ELISA after TLR agonist re-stimulation; details: priming 24 h with 10 μM peptide; 100 nM PMA dTHP-1 cells; 3 days rest; re-stimulated with 10 ng/ml Salmonella minnesota LPS
Description: (§1) THP-1 cells were cultured in Iscove Modified Dulbecco Media (IMDM, Gibco) containing Glutamax-I, sodium pyruvate, 10% fetal calf serum at 37° C. and 5% CO2. For differentiation to macrophage-like cells, THP-1 cells were grown in IMDM/FCS medium containing 8 of 100 nM PMA and seeded in 96 wells (5×10^4 cells/well), 24 wells (3×10^5 cells/well) or 6 wells plates (1×10^6 cells/well) during 48 h. Subsequently, dTHP-1 were washed with pre-warmed IMDM/FCS, left overnight to rest and primed during 1 to 24 h with 2-10 μM peptides of fresh IMDM/FCS medium, washed 3 times in medium. After 3 days rest cells were stimulated with various stimuli: S. minnesota LPS (10 ng/ml), E. coli LPS (10 or 50 ng/ml), Pam3CSK4 (1 μg/ml) or Pam2CSK4 (1 μg/ml). After 24 h supernatants were collected and stored at −20° C. For inhibition, dTHP-1 cells were pre-incubated for 1 h before priming and during priming with rapamycin (10 nM), AICAR (50 nM), metformin (0.3 mM), wortmannin (1 μM), ascorbate (50 μM), SB203580 (10 μM), PD98059 (10 μM), SP600125 (10 μM), EGCG (40 μM), anacardic acid (50 μM), curcumin (10 μM), garcinol (10 μM), Bay-11-7085 (10 μM), MTA (1 mM), MM-102 (25 μM), suramin (50 μM), KN-62 (3 μM), nystatin (10 μg/ml), and chlorpromazine (10 μM).
(§2) TNFα, IL-6, CXCL10 and CCL5 production were measured using ELISA (R&D systems) following instructions of the manufacturer.
Extrapolating from the trained immunity experiments with human monocytes, we examined if mature cathelicidin peptides could induce trained immunity in TH P-1 cells, a human monocyte cell line. TH P-1 cells were differentiated with 100 nM or 8 nM phorbol 12-myristate 13-acetate (PMA) during 48 h washed 3 times and, after overnight rest, primed with 2-10 μM of chicken cathelicidin 2 (CATH-2), its full D-analog DCATH-2 or human cathelicidin LL-37 for 24 h. Subsequently, dTHP-1 cells were washed 3 times and re-stimulated after a 3-day rest period with TLR agonists (24 h) (FIG. 1a). […] Priming with 5 μM of its full-D-amino acid analog DCATH-2 amplified 2- to 3-fold the TNFα and IL-6 production in response to LPS stimulation. A minor response was found for priming with 10 μM LL-37, which amplified IL-6 production 1.4-fold in 100 nM differentiated cells.

[2] = tested on: dTHP-1 cells; test: DCATH-2 training of dTHP-1 cells in the presence of pathway inhibitors; details: 1 μg/ml Pam3CSK4; for effect of inhibitor on DCATH-2 training (amplified Pam3CSK4-induced TNFα production): inhibitor 1 h before and during priming with 5 μM DCATH-2, 3 days rest; for Pam3CSK-induced TNFα production in the presence of inhibitor: reference level of FIG. 4a, means, SEM, 3 experiments
Description: as §1, §2

[3] = tested on: dTHP-1 cells; test: Confocal imaging of Tamra-labelled DCATH-2 uptake by dTHP-1 cells; details: 1 h pre-incubation with inhibitor, 3 h priming with Tamra-DCATH-2
Description: 3×10^5 dTHP-1 cells were seeded on 8 mm coverslips in 24 wells plates and differentiated for 48 h with 100 nM PMA in 0.5 ml medium. Wells were washed 3 times, and cells were primed for 3 h with Tamra-labelled DCATH-2 (TD) or medium. For inhibition conditions, cells were pre-incubated before priming for 1 h with 3 μM KN-62, 50 μM suramin, 10 μM chlorpromazine, or 10 μg/ml nystatin. After priming, coverslips were washed 3 times with warm medium and fixated for 30 min in 4% paraformaldehyde solution (0.1 M phosphate buffer, pH 7.4). After staining of nuclei with Hoechst (Molecular probes) for 10 min, coverslips were mounted on glass slides using ProLong glass antifade mountant (Thermofisher, P36980). Confocal images were acquired on a Leica SPE-II using the 100×HCX PLAN APO (NA=1.4-0.7) objective. Imaging was performed using a quadruple band beam splitter for the 561 nm laser. Visualization of Hoechst stained dTHP-1 cells was done with a 405 nm (100 mW) Coherent Violet Cube laser. Image analysis was done using composite images of both channels. In brief, regions of interest were set manually using DIC for segmentation. To isolate puncta from background noise, a threshold was set for the Tamra channel and intensity and area of puncta were measured partially automated using a script.

Molecule | effect of inhibitor on DCATH-2 training (amplified Pam3CSK4-induced TNFα production) [2] | other results
RFGRFLRKIRRFRPKVTITIQGSARF-NH2 [CATH-2, chicken cathelicidin 2 peptide] |  | amplification of IL-6 production [1]: 1.8 fold
CN(C)CCCN1c2ccccc2Sc2ccc(Cl)cc21 [chlorpromazin, chlorpromazine] | not affected | effect of inhibitor on uptake of TAMRA-labelled DCATH-2 by dTHP-1 cells [3]: not affected
CC(C)(C)c1ccc(S(=O)(=O)/C=C/C#N)cc1 [Bay-11-7085] | did not impair | 
CCCCCCCCCCCCCCCc1cccc(O)c1C(=O)O [anacardic acid] | abrogated | 
COc1cc(/C=C/C(=O)CC(=O)/C=C/c2ccc(O)c(OC)c2)ccc1O [curcumin] | not by garcinol or curcumin | 
O=C1O[C@H]([C@@H](O)CO)C(O)=C1O [ascorbate] |  | Pam3CSK-induced TNFα production in the presence of inhibitor [2]: 421 ± 112 pg/mL
O=C(O[C@@H]1Cc2c(O)cc(O)cc2O[C@@H]1c1cc(O)c(O)c(O)c1)c1cc(O)c(O)c(O)c1 [EGCG, epigallocatechin gallate] | abrogated | 
C[S+]([O-])c1ccc(-c2nc(-c3ccncc3)c(-c3ccc(F)cc3)[nH]2)cc1 (stereo not shown) [SB203580] | completely blocked | 
COc1cccc(-c2cc(=O)c3ccccc3o2)c1N [PD58059] | no effect | 
COC[C@H]1OC(=O)c2coc3c2[C@@]1(C)C1=C(C3=O)[C@@H]2CCC(=O)[C@@]2(C)C[C@H]1OC(C)=O [wortmannin] |  | Pam3CSK-induced TNFα production in the presence of inhibitor [2]: 354 ± 135 pg/mL
LLGDFFRKSKEKIGKEFKRIVQRIKDFLRNLVPRTES [LL-37, human cathelicidin, reference compound] |  | amplification of IL-6 production [1]: 1.4 fold
C[C@@H]1[C@H](O)[C@@H](C)/C=C/C=C/CC/C=C/C=C/C=C/C=C/C(O[C@H]2O[C@H](C)[C@@H](O)[C@H](N)[C@@H]2O)CC2O[C@](O)(CC(O)C(O)CCC(O)CC(O)CC(O)CC(=O)O[C@H]1C)CC(O)C2C(=O)O (stereo partly shown) [nystatin] | strongly impaired | effect of inhibitor on uptake of TAMRA-labelled DCATH-2 by dTHP-1 cells [3]: reduced uptake
CO[C@H]1C[C@@H]2CC[C@@H](C)[C@@](O)(O2)C(=O)C(=O)N2CCCC[C@H]2C(=O)O[C@H]([C@H](C)C[C@@H]2CC[C@@H](O)[C@H](OC)C2)CC(=O)[C@H](C)/C=C(\C)[C@@H](O)[C@@H](OC)C(=O)[C@H](C)C[C@H](C)/C=C/C=C/C=C/1C [rapamycin] |  | Pam3CSK-induced TNFα production in the presence of inhibitor [2]: 318 ± 45 pg/mL
CN([C@@H](Cc1ccc(OS(=O)(=O)c2cccc3cnccc23)cc1)C(=O)N1CCN(c2ccccc2)CC1)S(=O)(=O)c1cccc2cnccc12 [KN-62] | partially inhibited | effect of inhibitor on uptake of TAMRA-labelled DCATH-2 by dTHP-1 cells [3]: reduced uptake
CCC(CC)(NC(=O)C(C)C)C(=O)N[C@@H](CCCN=C(N)N)C(=O)NC1(C(=O)NC(c2ccc(F)cc2)c2ccc(F)cc2)CCCC1 [MM-102] | not affected | 
CN(C)C(=N)N=C(N)N [metformin] | did not result in a significant reduction | Pam3CSK-induced TNFα production in the presence of inhibitor [2]: 387 ± 99 pg/mL
Oc1c2ccccc2c2c3c(cccc13)N=N2 [SP600125] | no effect | 
NC(=O)c1ncn([C@@H]2O[C@H](COP(=O)(O)O)[C@@H](O)[C@H]2O)c1N [AICAR, 5-aminoimidazole-4-carboxamide ribonucleotide] | did not result in a significant reduction | Pam3CSK-induced TNFα production in the presence of inhibitor [2]: 335 ± 89 pg/mL
Cc1ccc(C(=O)Nc2ccc(S(=O)(=O)O)c3cc(S(=O)(=O)O)cc(S(=O)(=O)O)c23)cc1NC(=O)c1cccc(NC(=O)Nc2cccc(C(=O)Nc3cc(C(=O)Nc4ccc(S(=O)(=O)O)c5cc(S(=O)(=O)O)cc(S(=O)(=O)O)c45)ccc3C)c2)c1 [suramin] | completely impaired | effect of inhibitor on uptake of TAMRA-labelled DCATH-2 by dTHP-1 cells [3]: reduced uptake
